Reference: patent US9187474B2, “Raf inhibitor compounds” (Deciphera Pharmaceuticals, LLC, priority 2012, dated 2015)
Structures can show the parent of a compound that is named as a salt.

Key:
A375res cells [1] = test: Proliferation assay in vemurafenib-resistant A375res melanoma cells; conditions: Homo sapiens, 72 h, read-out: absolute IC50 values
Description: (§1) A vemurafenib-resistant cell line is generated by chronic treatment of the human melanoma cell line A375 (ATCC) harboring the B-Raf V600E mutation with increasing concentrations PLX4720.

A375res cells [2] = system: A375res cells
Description: as §1

[3] = system: phospho-ERK in HCT-116 cells; test: HCT-116 cell pERK assay (AlphaScreen SureFire); assay type: cell-based; conditions: Homo sapiens; HCT-116 cells, B-Raf wild type, K-Ras mutation; 4 hours; read-out: IC50 reduction of phospho-ERK signal
Description: Examples of Formula I are tested against HCT-116 cells harboring wild type B-Raf and K-Ras mutation. The phospho-ERK activities are evaluated as described below.
HCT-116 cells (catalog #CCL-247) are obtained from the American Type Culture Collection (ATCC, Manassas, Va.). Briefly, cells are grown in McCoy's 5A supplemented with 10% characterized fetal bovine serum (Invitrogen, Carlsbad, Calif.), and 1% Penicillin/Streptomycin/L-Glutamine at 37 degrees Celsius, 5% CO2, and 95% humidity. Cells are allowed to expand until reaching 75-90% confluency at which point they are subcultured or harvested for assay use. HCT-116 cells suspended in complete media are added to 384-well tissue culture treated plates (3×10^5 cells/mL; 7,500 cells per well). The cells are incubated overnight at 37 degrees Celsius, 5% CO2, and 95% humidity. Next, test compound or DMSO diluted in complete media is added to the wells (0.25% final DMSO concentration). The plates are then incubated for 4 hours at 37 degrees Celsius, 5% CO2, and 95% humidity. Following compound incubation, the cells are lysed at 4° C. for 20 minutes with shaking Cell lysates are centrifuged and the supernatant is transferred to a new plate. An aliquot of each lysate is transferred to a white 384-well assay plate. Using the AlphaScreen SureFire pERK kit (Perkin-Elmer, Waltham, Mass.), an acceptor bead mixture is added to each well and incubated for 2 h at room temperature in the dark. A donor bead mixture is then added to each well and incubated for 2 h at room temperature in the dark. Plates are read using a Synergy2 plate reader (Biotek, Winooski, Vt.) in Plate Mode with Timing Control. Read: (F)1: excitation: 680/30 nm, emission: Plug. 2: Excitation: Plug, emission: 570/100 nm. Top mirror 635 nm. Data is analyzed using Prism software (Graphpad, San Diego, Calif.) to calculate IC50 values and Excel software (Microsoft, Redmond, Wash.) to calculate stimulation compared to control.

[4] = system: phospho-ERK in A375 (B-Raf V600E) xenograft; test: A375 mouse xenograft pharmacodynamic assay (tumor pERK by ELISA); assay type: in vivo, mice; conditions: 2 h post dose, vs vehicle, read-out: Measured pERK inhibition 2 h post dose; for inhibition in vivo at 20 mg/kg: A-375, 20 mg/kg oral
Description: To evaluate the in vivo pharmacodynamic (PD) effects of compounds of Formula I, an A375 (B-Raf V600E) xenograft model is employed. Briefly, 10×10^6 A375 tumor cells (ATCC) are prepared in a 1:1 matrigel mix (0.2 mL total volume) and implanted by subcutaneous injection in hind leg of nude female mice. A total of 4 mice each for each dosing group are employed. Treatment is initiated with oral administration (gavage) of test compound or vehicle (20% captisol, 25 mM phosphate, pH2.0) in 0.2 mL volume when average tumor size reaches approximately 300 mg. After a fixed time interval, the tumors are harvested and the phospho-ERK levels are measured by ELISA (Enzyme-linked immunosorbent assay). Treated groups are compared to the vehicle control group to calculate % inhibition.

Structure (SMILES)	IC50 (A375res cells [1])	IC50 shift A375 to A375res (A375res cells [2])	IC50 [3]	inhibition in vivo at 20 mg/kg [4]	inhibition in vivo at 6 mg/kg ([4]; A-375, 6 mg/kg oral)
CNc1cc2nc(C)c(-c3cc(NC(=O)NCC4CC(C)(C)C4)c(F)cc3F)cc2cn1 [Example 13, 1-(2,4-difluoro-5-(2-methyl-7-(methylamino)-1,6-naphthyridin-3-yl)phenyl)-3-((3,3-dimethylcyclobutyl)methyl)urea hydrochloride]	0.009 to 0.504 µM	0.5-4.9 fold	0.002 to 0.096 µM	–	–
CNc1cc2nc(C)c(-c3cc(NC(=O)NCCC(C)(C)C)c(F)cc3C)cc2cn1 [Example 17, 1-(3,3-dimethylbutyl)-3-(2-fluoro-4-methyl-5-(2-methyl-7-(methylamino)-1,6-naphthyridin-3-yl)phenyl)urea]	0.009 to 0.504 µM	0.5-4.9 fold	–	89%	–
CNc1cc2nc(C)c(-c3cc(NC(=O)NC4CCOC(C)(C)C4)c(F)cc3C)cc2cn1 (stereo not drawn) [Example 20, 1-(2,2-dimethyltetrahydro-2H-pyran-4-yl)-3-(2-fluoro-4-methyl-5-(2-methyl-7-(methylamino)-1,6-naphthyridin-3-yl)phenyl)urea hydrochloride]	0.009 to 0.504 µM	0.5-4.9 fold	0.002 to 0.096 µM	–	–
CNc1cc2nc(C)c(-c3cc(NC(=O)NCCC4(C(F)(F)F)CC4)c(F)cc3C)cc2cn1 [Example 23, 1-(2-fluoro-4-methyl-5-(2-methyl-7-(methylamino)-1,6-naphthyridin-3-yl)phenyl)-3-(2-(1-(trifluoromethyl)cyclopropyl)ethyl)urea hydrochloride]	0.009 to 0.504 µM	0.5-4.9 fold	0.002 to 0.096 µM	–	–
CNc1cc2nc(C)c(-c3cc(NC(=O)NCCC(C)(C)OC)c(F)cc3F)cc2cn1 [Example 24, 1-(2,4-difluoro-5-(2-methyl-7 (methylamino)-1,6-naphthyridin-3-yl)phenyl)-3-(3-methoxy-3-methylbutyl)urea hydrochloride]	0.009 to 0.504 µM	–	0.002 to 0.096 µM	45%	–
CC(=O)Nc1cc2nc(C)c(-c3cc(NC(=O)NCCC(C)(C)C#N)c(F)cc3F)cc2cn1 [Example 43, N-(3-(5-(3-(3-cyano-3-methylbutyl)ureido)-2,4-difluorophenyl)-2-methyl-1,6-naphthyridin-7-yl)acetamide]	–	–	–	55%	–
CNc1cc2nc(C)c(-c3cc(NC(=O)NCCC(C)C)c(F)cc3C)cc2cn1 [Example 45, 1-(2-fluoro-4-methyl-5-(2-methyl-7-(methylamino)-1,6-naphthyridin-3-yl)phenyl)-3-isopentylurea]	0.009 to 0.504 µM	0.5-4.9 fold	0.002 to 0.096 µM	–	–
CNc1cc2nc(C)c(-c3cc(NC(=O)NCC(O)C(C)(C)C)c(F)cc3C)cc2cn1 (stereo not drawn) [Example 55, 1-(2-fluoro-4-methyl-5-(2-methyl-7-(methylamino)-1,6-naphthyridin-3-yl)phenyl)-3-(2-hydroxy-3,3-dimethylbutyl)urea]	0.009 to 0.504 µM	0.5-4.9 fold	0.002 to 0.096 µM	–	–
CNc1cc2nc(C)c(-c3cc(NC(=O)NC[C@@H](O)C(C)(C)C)c(F)cc3C)cc2cn1 [Example 56, (S)-1-(2-fluoro-4-methyl-5-(2-methyl-7-(methylamino)-1,6-naphthyridin-3-yl)phenyl)-3-(2-hydroxy-3,3-dimethylbutyl)urea]	–	–	0.002 to 0.096 µM	–	75%
Cc1cc(F)c(NC(=O)NCCC(C)(C)C)cc1-c1cc2cnc(NCCO)cc2nc1C [Example 64, 1-(3,3-dimethylbutyl)-3-(2-fluoro-5-(7-((2-hydroxyethyl)amino)-2-methyl-1,6-naphthyridin-3-yl)-4-methylphenyl)urea]	–	–	0.002 to 0.096 µM	79%	–
CNc1cc2nc(C)c(-c3cc(NC(=O)NC[C@@H](O)C(C)C)c(F)cc3C)cc2cn1 [Example 75, (S)-1-(2-fluoro-4-methyl-5-(2-methyl-7-(methylamino)-1,6-naphthyridin-3-yl)phenyl)-3-(2-hydroxy-3-methylbutyl)urea]	–	–	–	89%	–
CNc1cc2nc(C)c(-c3cc(NC(=O)NC4CC(C)(C)C4)c(F)cc3F)cc2cn1 [Example 78, 1-(2,4-difluoro-5-(2-methyl-7-(methylamino)-1,6-naphthyridin-3-yl)phenyl)-3-(3,3-dimethylcyclobutyl)urea hydrochloride]	–	–	–	68%	–
Cc1cc(F)c(NC(=O)NCCC2(C(F)(F)F)CC2)cc1-c1cc2cnc(N)cc2nc1C [Example 83, 1-(5-(7-amino-2-methyl-1,6-naphthyridin-3-yl)-2-fluoro-4-methylphenyl)-3-(2-(1-(trifluoromethyl)cyclopropyl)ethyl)urea hydrochloride]	0.009 to 0.504 µM	0.5-4.9 fold	0.002 to 0.096 µM	–	–
CNc1cc2nc(C)c(-c3cc(NC(=O)NCCC4CC4)c(F)cc3C)cc2cn1 [Example 84, 1-(2-cyclopropylethyl)-3-(2-fluoro-4-methyl-5-(2-methyl-7-(methylamino)-1,6-naphthyridin-3-yl)phenyl)urea hydrochloride]	0.009 to 0.504 µM	0.5-4.9 fold	0.002 to 0.096 µM	–	–
CNc1cc2nc(C)c(-c3cc(NC(=O)NC4CCC(F)(F)CC4)c(F)cc3F)cc2cn1 [Example 88, 1-(2,4-difluoro-5-(2-methyl-7-(methylamino)-1,6-naphthyridin-3-yl)phenyl)-3-(4,4-difluorocyclohexyl)urea hydrochloride]	0.009 to 0.504 µM	0.5-4.9 fold	0.002 to 0.096 µM	–	–
CNc1cc2ncc(-c3cc(NC(=O)NCCC(C)(C)F)c(F)cc3C)cc2cn1 [Example 93, 1-(3-fluoro-3-methylbutyl)-3-(2-fluoro-4-methyl-5-(7-(methylamino)-1,6-naphthyridin-3-yl)phenyl)urea]	0.009 to 0.504 µM	0.5-4.9 fold	0.002 to 0.096 µM	–	–
CNc1cc2nc(C)c(-c3cc(NC(=O)NCCC4(C)CC4)c(F)cc3F)cc2cn1 [Example 94, 1-(2,4-difluoro-5-(2-methyl-7-(methylamino)-1,6-naphthyridin-3-yl)phenyl)-3-(2-(1-methylcyclopropyl)ethyl)urea hydrochloride]	0.009 to 0.504 µM	0.5-4.9 fold	0.002 to 0.096 µM	–	–
CC(=O)Nc1cc2nc(C)c(-c3ccc(F)c(NC(=O)NCCC(C)(C)C)c3)cc2cn1 [Example 103, N-(3-(3-(3-(3,3-dimethylbutyl)ureido)-4-fluorophenyl)-2-methyl-1,6-naphthyridin-7-yl)acetamide]	–	–	–	90%	–
CC(=O)Nc1cc2nc(C)c(-c3cc(NC(=O)NCCC(C)(C)C)c(F)cc3F)cc2cn1 [Example 105, N-(3-(5-(3-(3,3-dimethylbutyl)ureido)-2,4-difluorophenyl)-2-methyl-1,6-naphthyridin-7-yl)acetamide]	–	–	–	87%	–
Cc1cc(F)c(NC(=O)NCCC(C)(C)F)cc1-c1cc2cnc(NC=O)cc2nc1C [Example 125, N-(3-(4-fluoro-5-(3-(3-fluoro-3-methylbutyl)ureido)-2-methylphenyl)-2-methyl-1,6-naphthyridin-7-yl)formamide hydrochloride]	0.009 to 0.504 µM	0.5-4.9 fold	0.002 to 0.096 µM	–	–
